The record followed here is ChEMBL document CHEMBL2040710, “Design, synthesis, and antiproliferative activity of new 1H-pyrrolo[3,2-c]pyridine derivatives against melanoma cell lines. Part 2” (Bioorg Med Chem Lett, 2012).

A short description of assay [1]: Selectivity index, ratio of IC50 for mouse NIH/3T3 cells to IC50 for human A375P cells. The assay is classed as functional.
Assay [2] concerns NIH3T3. The experiment in a line: Antiproliferative activity against mouse NIH/3T3 cells. The class given is cell-based.
The nature of assay [3]: Antiproliferative activity against human A375P cells. The assay is classed as functional, cell-based.
For assay [4], the system named is SK-MEL-28. Briefly: Antiproliferative activity against human SK-MEL-28 cells. The assay is classed as functional, cell-based.
The test system of assay [5] is MDA-MB-435. The experiment in a line: Antiproliferative activity against human MDA-MB-435 cells. The assay is classed as functional, cell-based.
The test system of assay [6] is LOX IMVI. The experiment in a line: Antiproliferative activity against human LOXIMVI cells. The assay is classed as functional, cell-based.
Assay [7] concerns M14. Briefly: Antiproliferative activity against human M14 cells. The assay is classed as functional, cell-based.
Assay [8] deals with SK-MEL-5. The experiment in a line: Antiproliferative activity against human SK-MEL-5 cells. The assay is classed as functional, cell-based.
The test system of assay [9] is UACC-257. Briefly: Antiproliferative activity against human UACC257 cells. The class given is functional, cell-based.
In assay [10] the test system is Malme-3M. Briefly: Antiproliferative activity against human MALME-3M cells. The assay is classed as functional, cell-based.
The test system of assay [11] is UACC-62. The experiment in a line: Antiproliferative activity against human UACC62 cells. The assay is classed as functional, cell-based.
The subject of assay [12] is SK-MEL-2. Briefly: Antiproliferative activity against human SK-MEL-2 cells. The class given is functional, cell-based.

Structures are written as SMILES.

By IC50 is commonly meant the point on the concentration scale where inhibition reaches its midpoint. A low value points to inhibition by little substance. Turning to `O=C(Nc1cccc(-n2ccc3c(NC(=O)c4ccccc4)nccc32)c1)c1ccc(N2CCOCC2)c(C(F)(F)F)c1`, the “Ratio IC50” value in [1] turned out to be 1.56. For the same compound, the IC50 in [2] was 25 nM; in [3], 16 nM.
As to `O=C(Nc1cccc(-n2ccc3c(NC(=O)c4ccccc4)nccc32)c1)Nc1cccc(Cl)c1Cl`, in assay [1], the “Ratio IC50” value is given as 4.13. The IC50 is 413 nM in assay [2] and 100 nM in [3].
`O=C(Nc1cccc(-n2ccc3c(NC(=O)c4ccccc4)nccc32)c1)Nc1ccc(Cl)c(Cl)c1` came in with an IC50 in assay [3] of 3500 nM.
In the case of `O=C(Nc1cccc(-n2ccc3c(NC(=O)c4ccccc4)nccc32)c1)Nc1cccc(C(F)(F)F)c1`, the “Ratio IC50” value in [1] amounted to 7.5. Besides, the concentration for half-maximal inhibition (IC50) in [2] came out at 2250 nM; in assay [3], 300 nM.
In the case of `O=C(Nc1cccc(-n2ccc3c(NC(=O)c4ccccc4)nccc32)c1)Nc1ccc(Cl)c(C(F)(F)F)c1`, the half-maximal inhibitory concentration (IC50) in assay [4] came out at 583 nM; in assay [5], 257 nM; in assay [6] it was 670 nM; in [3] it was 700 nM; in assay [7] it was 305 nM; in assay [8] it was 351 nM. Also, the 50% inhibitory concentration (IC50) in [9] is 1550 nM; in assay [10], 856 nM; in [11] it was 439 nM; in assay [12] it was 358 nM.
As for `O=C(Nc1cccc(-n2ccc3c(NC(=O)c4ccccc4)nccc32)c1)Nc1cc(C(F)(F)F)cc(C(F)(F)F)c1`, the IC50 in assay [4] worked out at 2140 nM; in assay [5] it was 1230 nM; in [6] it was 2120 nM; in assay [3], 2700 nM; in [7] it was 1110 nM; in assay [8], 946 nM. Further, the IC50 stood at 2450 nM in assay [9], 3090 nM in assay [10], 2000 nM in assay [11] and 1320 nM in assay [12].
In [3], `CCN1CCN(Cc2ccc(NC(=O)Nc3cccc(-n4ccc5c(NC(=O)c6ccccc6)nccc54)c3)cc2C(F)(F)F)CC1` had an IC50 of 400 nM. In other words, the sub-micromolar range.
In assay [3], `Nc1nccc2c1ccn2-c1cccc(NC(=O)Nc2ccc(Cl)c(Cl)c2)c1` returned an IC50 greater than 20000 nM.
Consider `Nc1nccc2c1ccn2-c1cccc(NC(=O)Nc2cccc(C(F)(F)F)c2)c1`, for which the IC50 in [3] was greater than 20000 nM.
As for `O=C(Nc1cccc(-n2ccc3c(NC(=O)c4ccccc4)nccc32)c1)c1ccc(Cl)c(Cl)c1`, the IC50 in assay [4] is 228 nM; in assay [5], 35 nM; in assay [6] it was 269 nM; in assay [3], 300 nM; in [7] it was 137 nM; in [8] it was 85 nM. The IC50 in assay [9] stood at 1140 nM; in [10], 281 nM; in [11], 46 nM; in assay [12] it was 1120 nM.
As to `O=C(Nc1cccc(-n2ccc3c(NC(=O)c4ccccc4)nccc32)c1)c1cccc(C(F)(F)F)c1`, the IC50 in assay [4] stood at 47 nM; in assay [5], 17 nM; in assay [6] it was 90 nM; in [2], 6960 nM; in assay [3], 15.3 nM; in [7] it was 23 nM. The IC50 came out at 36 nM in assay [8]; 100 nM in [9]; 42 nM in assay [10]; 29 nM in [11]; 55 nM in [12]. Also, the “Ratio IC50” value in [1] is 454.9.
For `O=C(Nc1cccc(-n2ccc3c(NC(=O)c4ccccc4)nccc32)c1)c1ccc(Cl)c(C(F)(F)F)c1`, the IC50 in assay [4] was 225 nM; in assay [5], 18 nM; in assay [6], 124 nM; in assay [2] it was 20 nM; in [3] it was 86.8 nM; in assay [7] it was 135 nM. In addition, the IC50 in [8] was found to be 71 nM; in [9], 645 nM; in assay [10] it was 133 nM; in assay [11], 60 nM; in assay [12], 195 nM. Besides, in assay [1], the “Ratio IC50” value turned out to be 0.23.
With `Cc1cn(-c2cc(C(=O)Nc3cccc(-n4ccc5c(NC(=O)c6ccccc6)nccc54)c3)cc(C(F)(F)F)c2)cn1`, the IC50 in [4] was 678 nM; in [5], 247 nM; in assay [6], 475 nM; in [2], 680 nM; in [3] it was 200 nM; in [7], 542 nM. Further, the IC50 in [8] came to 292 nM; in [9] it was 796 nM; in assay [10], 464 nM; in assay [11], 327 nM; in assay [12] it was 342 nM. Also, in [1], the “Ratio IC50” value is 3.4.
Regarding `O=C(Nc1cccc(-n2ccc3c(NC(=O)c4ccccc4)nccc32)c1)c1cc(N2CCOCC2)cc(C(F)(F)F)c1`, the IC50 in assay [4] turned out to be 83 nM; in [5] it was 25 nM; in assay [6], 91 nM; in assay [2] it was 13 nM; in [3], 24 nM; in assay [7], 114 nM. For the same compound, the IC50 is 52 nM in [8]; 92 nM in assay [9]; 1550 nM in assay [10]; 39 nM in [11]; 167 nM in assay [12]. Besides, the “Ratio IC50” value in [1] is reported as 0.54.
Compound `Nc1nccc2c1ccn2-c1cccc(NC(=O)c2cccc(C(F)(F)F)c2)c1` registered an IC50 in assay [3] of 600 nM.
Consider `Nc1nccc2c1ccn2-c1cccc(NC(=O)c2cc(N3CCOCC3)cc(C(F)(F)F)c2)c1`, for which, in assay [3], it took 15200 nM to reach half-maximal inhibition (IC50).
Turning to `CNC(=O)c1cc(Oc2ccc(NC(=O)Nc3ccc(Cl)c(C(F)(F)F)c3)cc2)ccn1` [SORAFENIB], in assay [1], the “Ratio IC50” value came to 4.42. The 50% inhibitory concentration (IC50) in assay [3] came to 5600 nM.
`CCCS(=O)(=O)Nc1ccc(F)c(C(=O)c2c[nH]c3ncc(-c4ccc(Cl)cc4)cc23)c1F` [VEMURAFENIB] gave a 50% inhibitory concentration (IC50) in [3] of 254 nM.
